{"source": "patent US20200283807A1", "about": "“METHOD AND CELL LINE FOR PRODUCTION OF PHYTOCANNABINOIDS AND PHYTOC[…] IN YEAST” (Hyasynth Biologicals Inc., priority 2017, published 2020)", "key": {"S. cerevisiae [1]": {"system": "S. cerevisiae", "test": "Growth of S. cerevisiae strain HB37 in the presence of hexanoic acid (A600 of culture)", "assay_type": "cell-based, Saccharomyces cerevisiae", "conditions": "HB37-HA, 0.5 mM hexanoic acid", "protocol": "(§1) Yeast cultures were grown in overnight cultures with selective media to provide starter cultures. The resulting starter cultures were then used to inoculate triplicate 50 ml cultures to an optical density at having an absorption at 600 nm (“A600”) of 0.1.\n(§2) In the presence of 0.5 mM hexanoic acid, HB13 and HB37 were grown for 96 hours with samples taken at the 24h, 36h, 48h, 60, 72h, 84h and 96h points. In the absence of hexanoic acid, HB13 and HB84 were grown and a single time point was taken at 72 hours. HB13 was used as a control in both experiments. The growth media are described above in relation to Tables 8 and 9.\nFIGS. 13 to 15 each show the A600 values of the HB37 culture listed in Table 10 (dashed lines with triangle data points)."}, "S. cerevisiae [2]": {"system": "S. cerevisiae", "test": "Effect of hexanoic acid on growth of S. cerevisiae strain HB13 (A600 of culture)", "assay_type": "cell-based, Saccharomyces cerevisiae", "conditions": "for growth (A600): HB13-HA, 0.5 mM hexanoic acid", "protocol": "as §1\nHB13 was cultured in YNB+2% glucose+1.6 g/L 4DO*+0.5 mM hexanoic acid. Hexanoic acid was added at 36 hours of culture. The hexanoic acid was added to separate culture samples at concentrations of 0, 0.5, 1.0 and 3.0 mM. Hexanoic acid is toxic to S. cerevisiae. […] The magnitude of the decrease in S. cerevisiae growth corresponds to the concentration of hexanoic acid in the growth media. The A600 value of culture suspensions quantifies the growth rate, which is shown at hexanoic acid concentrations of 0, 0.5, 1.0 and 3.0 mM in FIG. 12.\nas §2"}}, "data": [{"smiles": "CCCCCC(=O)O", "note": "[hexanoic acid]", "values": [{"measurement": "growth (A600)", "setting": "S. cerevisiae [1]; 24 h", "result": 3.33}, {"measurement": "growth (A600)", "setting": "S. cerevisiae [1]; 36 h", "result": 3.43}, {"measurement": "growth (A600)", "setting": "S. cerevisiae [1]; 48 h", "result": 3.33}, {"measurement": "growth (A600)", "setting": "S. cerevisiae [1]; 60 h", "result": 3.53}, {"measurement": "growth (A600)", "setting": "S. cerevisiae [1]; 72 h", "result": 4.48}, {"measurement": "growth (A600)", "setting": "S. cerevisiae [1]; 84 h", "result": 4.13}, {"measurement": "growth (A600)", "setting": "S. cerevisiae [1]; 96 h", "result": 4.33}, {"measurement": "growth (A600)", "setting": "S. cerevisiae [2]; 24 h", "result": 5.33}, {"measurement": "growth (A600)", "setting": "S. cerevisiae [2]; 36 h", "result": 5.80}, {"measurement": "growth (A600)", "setting": "S. cerevisiae [2]; 48 h", "result": 4.67}, {"measurement": "growth (A600)", "setting": "S. cerevisiae [2]; 60 h", "result": 6.07}, {"measurement": "growth (A600)", "setting": "S. cerevisiae [2]; 72 h", "result": 8.96}, {"measurement": "growth (A600)", "setting": "S. cerevisiae [2]; 84 h", "result": 7.23}, {"measurement": "growth (A600)", "setting": "S. cerevisiae [2]; 96 h", "result": 8.28}, {"measurement": "effect of hexanoic acid supplementation on growth of S. cerevisiae (A600)", "setting": "S. cerevisiae [2]; HB13, hexanoic acid added at 36 hours at 0, 0.5, 1.0 and 3.0 mM, FIG. 12", "result": "Decreased growth"}]}]}
